The subject of the assay is FOXA1 mRNA. The experiment in a line: FOXA1 mRNA expression in KPC tumors (RNA-seq, qRT-PCR). Format: in vivo, KPC mice. The conditions noted are these: vs intratumor exposure. As for the experimental part:
Pancreas cancer tissues samples or adjacent, uninvolved normal pancreas from vehicle or metarrestin-treated KPC animals collected at 0, 3, and 9 h after last dose of 25 mg/kg metarrestin were homogenized in PureLink Lysis Buffer (PureLink RNA Mini Kit, ThermoFisher Scientific Waltham, MA) at 4 °C using a TissueLyser II bead mill (Qiagen, Valencia, CA, manufactured by Retsch, Newtown, PA). Total RNA was isolated using the Life Technologies PureLink® RNA Mini Kit, quantified on a NanoDrop 1000 spectrophotometer (ThermoFisher Scientific, Waltham, MA). […]
Total RNA libraries were prepared using the Illumina TruSeq® Stranded Total RNA LT (with Ribo-Zero™Human/Mouse/Rat) kit according the manufacturer’s instructions. […] Sequencing output ranged from 89 to 132 million reads per sample. Adapter trimming and base filtering was done using Trimmomatic software version 0.3, and the trimmed reads were aligned to mouse reference genome (GRCm38/mm10) and Ensembl annotation (version 70) using TopHat2 version 2.0.8.
A total of 450 ng of total RNA was used for single-strand complementary DNA synthesis using a SuperScript III First-Strand kit (Invitrogen, Carlsbad, CA). […] Reaction products were read in a Bio-Rad CFX96 Touch real-time PCR detection system (Bio-Rad Laboratories, Hercules, CA). […]
(Quantitative PCR measures a nucleic acid by following its amplification.)

The structures appear in SMILES notation.

This note sets out measurements from publication PMC6267684, “Pharmacokinetic evaluation of the PNC disassembler metarrestin in wild-type and Pdx1-Cre;LSL-Kras^G12D/+;Tp53^R172H/+ (KPC) mice, a genetically engineered model of pancreatic cancer” (Cancer Chemotherapy and Pharmacology, 2018).

`N=c1c2c(-c3ccccc3)c(-c3ccccc3)n(Cc3ccccc3)c2ncn1[C@H]1CC[C@H](O)CC1` [metarrestin, Trans-4-(7-benzyl-4-imino-5,6-diphenyl-4,7-dihydro-3H-pyrrolo[2,3-d]pyrimidin-3-yl) cyclohexanol]: the “FOXA1 mRNA expression in KPC tumors” value is recorded as “Dose-dependent normalization”.
